According to PMC11172311, “Structural and Interactional Analysis of the Flavonoid Pathway Proteins: Chalcone Synthase, Chalcone Isomerase and Chalcone Isomerase-like Protein” (International Journal of Molecular Sciences, 2024):

Tests used:
[1] = biological target: T1, PvCHS (chalcone synthase) (Panicum virgatum, UniProt A0A8T0PQ54); assay: X-ray crystal structure (co-crystallization, ternary complex with CoA); format: binding
T1 construct: gene PVAP13_8KG261900; full-length with N-terminal His6-tag; residues 8 to 395 of 402 resolved
T1 sequence (A0A8T0PQ54 1-402): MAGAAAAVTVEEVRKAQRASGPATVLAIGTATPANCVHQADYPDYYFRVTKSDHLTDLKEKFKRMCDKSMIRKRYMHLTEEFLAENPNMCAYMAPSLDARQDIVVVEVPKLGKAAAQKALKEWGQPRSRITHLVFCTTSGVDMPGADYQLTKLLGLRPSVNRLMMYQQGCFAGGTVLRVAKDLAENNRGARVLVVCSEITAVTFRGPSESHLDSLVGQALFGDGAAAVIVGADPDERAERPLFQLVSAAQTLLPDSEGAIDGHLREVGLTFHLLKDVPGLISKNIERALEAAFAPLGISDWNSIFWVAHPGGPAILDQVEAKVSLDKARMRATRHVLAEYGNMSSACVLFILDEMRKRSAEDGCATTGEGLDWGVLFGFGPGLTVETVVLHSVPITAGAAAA

[2] = biological target: T1, PvCHS (chalcone synthase); assay: X-ray crystal structure (co-crystallization); format: binding
[3] = biological target: T2, SbCHI (chalcone isomerase, Bmr30) (Sorghum bicolor, UniProt C5WV22); assay: X-ray crystal structure (binary complex); format: binding
T2 construct: gene SORBI_3001G035600; recombinant SbCHI
T2 sequence (C5WV22 1-231): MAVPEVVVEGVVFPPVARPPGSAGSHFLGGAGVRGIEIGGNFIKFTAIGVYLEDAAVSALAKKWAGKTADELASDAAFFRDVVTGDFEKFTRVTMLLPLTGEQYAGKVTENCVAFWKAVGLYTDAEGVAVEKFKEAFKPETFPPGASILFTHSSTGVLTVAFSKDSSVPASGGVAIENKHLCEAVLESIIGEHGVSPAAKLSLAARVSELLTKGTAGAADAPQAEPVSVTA

[4] = biological target: T3, PvCHI (chalcone isomerase) (Panicum virgatum, UniProt A0A8T0N7A2); assay: steady-state kinetics with naringenin chalcone as substrate, […] liquiritigenin; format: biochemical
T3 construct: gene PVAP13_9KG390224; recombinant, N-terminal 6×-His tag
T3 sequence (A0A8T0N7A2 1-235): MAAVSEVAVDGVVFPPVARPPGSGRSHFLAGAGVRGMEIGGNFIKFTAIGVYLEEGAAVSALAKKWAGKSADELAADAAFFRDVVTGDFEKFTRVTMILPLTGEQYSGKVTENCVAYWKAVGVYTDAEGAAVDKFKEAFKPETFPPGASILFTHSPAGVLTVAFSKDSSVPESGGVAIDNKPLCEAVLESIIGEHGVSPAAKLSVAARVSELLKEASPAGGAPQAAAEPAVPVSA

[5] = biological target: T3, PvCHI (chalcone isomerase); assay: steady-state kinetics at […] nm; substrate inhibition (Km […], KI […]); format: biochemical

O=C1C[C@@H](c2ccc(O)cc2)Oc2cc(O)cc(O)c21 [naringenin]
X-ray crystal structure (co-crystallization, ternary complex with CoA) [1]: one naringenin molecule was visible in the concave pocket established at the interface between two PvCHS dimers

CC(C)(COP(=O)(O)OP(=O)(O)OC[C@H]1O[C@@H](n2cnc3c(N)ncnc32)[C@H](O)[C@@H]1OP(=O)(O)O)[C@@H](O)C(=O)NCCC(=O)NCCS [CoA]
X-ray crystal structure (co-crystallization) [2]: The electron density corresponding to an extended CoA molecule (Figure 2B) along a continuous tunnel

O=C1C[C@@H](c2ccc(O)cc2)Oc2cc(O)ccc21 [liquiritigenin]
X-ray crystal structure (binary complex) [3]: the electron density corresponding to liquiritigenin that had been added to the crystallization buffer was clearly identified
Ki [4]: 0.285 µM

O=C(/C=C/c1ccc(O)cc1)c1ccc(O)cc1O [isoliquiritigenin]
Ki [5]: 11.2 µM
